For 11 molecules, Ki results are on record in BindingDB's records for doi:10.1016/s0026-0495(96)90072-4 (Sandoz Pharma, 1996).

Assay [1] concerns the target Somatostatin receptor type 3 (Homo sapiens, UniProt P32745).
Assay [2] deals with Somatostatin receptor type 1 (Homo sapiens, UniProt P30872).
The target of assay [3] is Somatostatin receptor type 5 (Homo sapiens, UniProt P35346).
For assay [4], the target named is Somatostatin receptor type 4 (Homo sapiens, UniProt P31391).
Assay [5] concerns the target Somatostatin receptor type 2 (Homo sapiens, UniProt P30874).

SMILES strings stand for the structures. Positions of bridges follow the written chain, without caps; N, C: chain ends. Non-standard residues stand in square brackets, D forms with d. Residues, ends and D or L forms follow the SMILES beside them. *: point of attachment. d1Nal = N[C@H](Cc1cccc2ccccc12)C(=O)O; Asu = N[C@@H](CCCCCC(=O)O)C(=O)O; Nphe = O=C(O)CNCc1ccccc1; Ahp = NCCCCCCC(=O)O; Bn = c1ccc(C*)cc1

One may read the Ki as a measure of affinity in units of concentration, obtained from inhibition or displacement.

Sequence of Somatostatin receptor type 2 (P30874 whole entry): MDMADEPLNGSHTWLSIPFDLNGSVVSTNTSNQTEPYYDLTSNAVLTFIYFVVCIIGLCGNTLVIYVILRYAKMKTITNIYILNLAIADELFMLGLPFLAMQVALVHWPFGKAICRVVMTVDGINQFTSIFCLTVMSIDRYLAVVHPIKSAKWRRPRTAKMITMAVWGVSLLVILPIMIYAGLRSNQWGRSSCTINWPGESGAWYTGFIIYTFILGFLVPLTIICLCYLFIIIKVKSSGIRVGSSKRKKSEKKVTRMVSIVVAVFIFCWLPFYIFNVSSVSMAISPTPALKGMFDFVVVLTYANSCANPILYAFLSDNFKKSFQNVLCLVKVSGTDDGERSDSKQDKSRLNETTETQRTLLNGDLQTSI
Sequence of Somatostatin receptor type 4 (P31391 whole entry): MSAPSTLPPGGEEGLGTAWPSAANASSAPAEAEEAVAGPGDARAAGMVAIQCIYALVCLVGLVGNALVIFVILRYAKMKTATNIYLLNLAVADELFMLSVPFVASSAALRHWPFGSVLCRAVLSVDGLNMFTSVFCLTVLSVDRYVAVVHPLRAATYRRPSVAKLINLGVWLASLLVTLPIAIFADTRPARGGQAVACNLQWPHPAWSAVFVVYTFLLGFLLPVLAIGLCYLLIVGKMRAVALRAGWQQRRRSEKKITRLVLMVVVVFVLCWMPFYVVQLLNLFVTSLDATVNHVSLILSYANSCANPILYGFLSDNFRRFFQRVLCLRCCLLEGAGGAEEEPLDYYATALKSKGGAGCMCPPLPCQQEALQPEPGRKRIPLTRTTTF
Sequence of Somatostatin receptor type 3 (P32745 whole entry): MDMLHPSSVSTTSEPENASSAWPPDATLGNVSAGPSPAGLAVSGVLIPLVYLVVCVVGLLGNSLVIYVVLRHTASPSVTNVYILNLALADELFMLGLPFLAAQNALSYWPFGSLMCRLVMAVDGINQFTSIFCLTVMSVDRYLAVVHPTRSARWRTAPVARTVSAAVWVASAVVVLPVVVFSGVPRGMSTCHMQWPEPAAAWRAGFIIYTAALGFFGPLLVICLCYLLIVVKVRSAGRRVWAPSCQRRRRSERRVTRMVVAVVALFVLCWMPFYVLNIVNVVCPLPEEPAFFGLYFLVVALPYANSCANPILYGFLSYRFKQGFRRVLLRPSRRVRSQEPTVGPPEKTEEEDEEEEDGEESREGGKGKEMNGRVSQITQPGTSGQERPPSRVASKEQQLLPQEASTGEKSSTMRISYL
Sequence of Somatostatin receptor type 1 (P30872 whole entry): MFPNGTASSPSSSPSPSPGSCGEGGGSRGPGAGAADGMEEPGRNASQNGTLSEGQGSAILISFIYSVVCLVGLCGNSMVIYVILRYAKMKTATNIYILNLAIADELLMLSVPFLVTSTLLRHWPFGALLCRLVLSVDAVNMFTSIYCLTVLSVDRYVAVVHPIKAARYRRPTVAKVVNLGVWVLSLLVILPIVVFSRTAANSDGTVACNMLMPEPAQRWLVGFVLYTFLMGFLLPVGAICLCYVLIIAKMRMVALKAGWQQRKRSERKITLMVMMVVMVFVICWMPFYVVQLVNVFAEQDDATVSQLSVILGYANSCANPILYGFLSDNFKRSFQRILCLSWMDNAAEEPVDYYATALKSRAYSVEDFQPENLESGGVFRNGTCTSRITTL
Sequence of Somatostatin receptor type 5 (P35346 whole entry): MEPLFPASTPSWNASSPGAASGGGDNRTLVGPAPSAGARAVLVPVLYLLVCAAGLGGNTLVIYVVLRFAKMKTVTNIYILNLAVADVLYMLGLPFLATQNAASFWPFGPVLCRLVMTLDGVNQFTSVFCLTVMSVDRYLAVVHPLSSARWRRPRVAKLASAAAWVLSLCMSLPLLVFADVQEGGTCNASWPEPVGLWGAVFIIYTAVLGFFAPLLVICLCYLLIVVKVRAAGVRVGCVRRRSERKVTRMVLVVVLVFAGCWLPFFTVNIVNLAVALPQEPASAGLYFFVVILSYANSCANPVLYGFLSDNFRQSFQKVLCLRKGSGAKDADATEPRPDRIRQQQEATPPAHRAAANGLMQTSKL

Turning to `C[C@@H](O)[C@@H]1NC(=O)[C@H](CCCCN)NC(=O)[C@@H](Cc2c[nH]c3ccccc23)NC(=O)[C@H](Cc2ccccc2)NC(=O)[C@@H]2CCCN2C(=O)[C@H](Cc2ccccc2)NC1=O` (cyclo(PF[dW]KTF)), the inhibition constant Ki stood at 126 nM in assay [1]; 631 nM in assay [2]; 39.8 nM in assay [3]; 100 nM in assay [4]; 0.63 nM in assay [5].

As for `CC(C)[C@@H]1NC(=O)[C@H](CCCCN)NC(=O)[C@@H](Cc2c[nH]c3ccccc23)NC(=O)[C@H](Cc2ccc(O)cc2)NC(=O)[C@@H](NC(=O)[C@H](N)Cc2ccc3ccccc3c2)CSSC[C@@H](C(=O)N[C@H](C(N)=O)[C@@H](C)O)NC1=O` [3-(2-Naphtyl)-D-Ala-L-Cys(1)-L-Tyr-D-Trp-L-Lys-L-Val-L-Cys(1)-L-Thr-NH2], the Ki was 63.1 nM in assay [1] and 0.5 nM in assay [5].

On to `CC(C)[C@H](NC(=O)[C@H](CCCCN)NC(=O)[C@@H](Cc1c[nH]c2ccccc12)NC(=O)[C@H](Cc1ccc(O)cc1)NC(=O)[C@H](Cc1ccccc1)NC(=O)[C@H](N)Cc1ccccc1)C(=O)N[C@@H](Cc1ccccc1)C(=O)N[C@H](Cc1cccc2ccccc12)C(N)=O` [BIM 23056] (H-[dF]FY[dW]KVF[d1Nal]-NH2), for which the Ki in assay [1] was determined as 100 nM; in assay [2] it was 100 nM; in assay [3], 12.6 nM; in assay [4], 100 nM; in assay [5], 200 nM.

Regarding `CC(C)[C@@H]1NC(=O)[C@H](CCCCN)NC(=O)[C@@H](Cc2c[nH]c3ccccc23)NC(=O)[C@H](Cc2ccc(O)cc2)NC(=O)[C@@H](NC(=O)[C@H](N)Cc2ccccc2)CSSC[C@@H](C(=O)N[C@@H](Cc2c[nH]c3ccccc23)C(N)=O)NC1=O` [CAS_71306] (H-[dF]CY[dW]KVCW-NH2; disulfide 2-7), in assay [5], the Ki stood at 0.07 nM.

For the molecule `C[C@@H](O)[C@H](NC(=O)[C@H](Cc1ccccc1)NC(=O)[C@@H](NC(=O)[C@H](CCCCN)NC(=O)[C@@H](Cc1c[nH]c2ccccc12)NC(=O)[C@H](Cc1ccccc1)NC(=O)[C@H](Cc1ccccc1)NC(=O)[C@H](N)Cc1ccccc1)[C@@H](C)O)C(N)=O` [CAS_133073-82-2] (H-[dF]FF[dW]KTFT-NH2), the Ki in assay [1] is 1.99 nM; in assay [2], 6.3 nM; in assay [3], 1.58 nM; in assay [4], 15.8 nM; in assay [5], 7.94 nM.

As to `C[C@@H](O)[C@@H]1NC(=O)[C@H](Cc2ccc(O)cc2)NC(=O)[C@H]([C@@H](C)O)NC(=O)[C@H](CCCCN)NC(=O)[C@H](Cc2c[nH]c3ccccc23)NC(=O)[C@H](Cc2ccccc2)NC(=O)[C@H](Cc2ccccc2)NC(=O)[C@H](CC(N)=O)NC(=O)[C@H](CCCCN)NC(=O)CCCCC[C@@H](C(=O)O)NC(=O)[C@H](CO)NC1=O` [CGP-23996] (KNFFWKTYTS[Asu]-OH; lactam N-11), the inhibitory constant (Ki) in assay [1] worked out at 0.39 nM; in assay [2], 3.98 nM; in assay [3], 2.51 nM; in assay [4], 1.99 nM; in assay [5], 0.79 nM.

Take `C[C@@H](O)[C@@H]1NC(=O)[C@H](CCCCN)NC(=O)[C@@H](Cc2c[nH]c3ccccc23)NC(=O)[C@H](Cc2c[nH]c3ccccc23)NC(=O)[C@H](Cc2ccccc2)NC(=O)CCCCCCNC(=O)[C@H](Cc2ccccc2)NC1=O` [L-362855] (cyclo([Ahp]FW[dW]KTF)): the Ki in assay [1] turned out to be 6.3 nM; in assay [2] it was 100 nM; in assay [3] it was 0.1 nM; in assay [4] it was 100 nM; in assay [5], 0.79 nM.

Take `CC(=O)N(CC(=O)NC1CSSCC(C(=O)NC(Cc2c[nH]c3ccccc23)C(N)=O)NC(=O)C(C(C)C)NC(=O)C(CCCCN)NC(=O)C(Cc2c[nH]c3ccccc23)NC(=O)C(Cc2ccc(O)cc2)NC1=O)Cc1ccccc1` (stereo not drawn) [RC 160II] (Ac-[Nphe]CYWKVCW-NH2; disulfide 2-7; configuration not given here): the inhibitory constant (Ki) in assay [1] came out at 100 nM; in assay [2], 100 nM; in assay [3] it was 5.01 nM; in assay [4], 100 nM; in assay [5] it was 1.58 nM.

In the case of `CSCC[C@@H]1NC(=O)[C@@H](NC(=O)[C@H](CC(N)=O)NC(=O)[C@H](CC(C)C)NC(=O)[C@@H]2CCCN2C(=O)[C@H](CCCCN)NC(=O)[C@H](CO)NC(=O)[C@@H](NC(=O)[C@@H](NC(=O)[C@@H](NC(=O)[C@H](CC(N)=O)NC(=O)[C@@H](N)CC(=O)O)[C@@H](C)O)C(C)C)[C@@H](C)O)CSSC[C@@H](C(=O)O)NC(=O)[C@H](C)NC(=O)[C@H]([C@@H](C)O)NC(=O)[C@H](CCCN=C(N)N)NC(=O)[C@H](CO)NC(=O)[C@H](CCCCN)NC(=O)[C@H](Cc2c[nH]c3ccccc23)NC(=O)[C@H](Cc2ccccc2)NC(=O)[C@H](Cc2ccc(O)cc2)NC(=O)[C@H](CC(N)=O)NC1=O` [SS-22] (H-DNTVTSKPLNCMNYFWKSRTAC-OH; disulfide 11-22), the Ki was determined as 100 nM in assay [1]; 794 nM in assay [2]; 12.6 nM in assay [3]; 100 nM in assay [4]; 126 nM in assay [5].

Regarding `CSCC[C@H](NC(=O)[C@H](C)NC(=O)[C@@H]1CCCN1C(=O)[C@H](CC(N)=O)NC(=O)[C@@H](N)CO)C(=O)N[C@@H](C)C(=O)N1CCC[C@H]1C(=O)N[C@@H](CCCN=C(N)N)C(=O)N[C@@H](CCC(=O)O)C(=O)N[C@@H](CCCN=C(N)N)C(=O)N[C@@H](CCCCN)C(=O)N[C@@H](C)C(=O)NCC(=O)N[C@H]1CSSC[C@@H](C(=O)O)NC(=O)[C@H](CO)NC(=O)[C@H]([C@@H](C)O)NC(=O)[C@H](Cc2ccccc2)NC(=O)[C@H]([C@@H](C)O)NC(=O)[C@H](CCCCN)NC(=O)[C@H](Cc2c[nH]c3ccccc23)NC(=O)[C@H](Cc2ccccc2)NC(=O)[C@H](Cc2ccccc2)NC(=O)[C@H](CC(N)=O)NC(=O)[C@H](CCCCN)NC1=O` [SS-25] (H-SNPAMAPRERKAGCKNFFWKTFTSC-OH; disulfide 14-25), the Ki in assay [1] turned out to be 0.5 nM; in assay [2] it was 0.79 nM; in assay [3], 0.19 nM; in assay [4], 1 nM; in assay [5], 0.31 nM.

`C[C@@H](OCc1ccccc1)[C@@H]1NC(=O)[C@H](CCCCN)NC(=O)[C@@H](Cc2c[nH]c3ccccc23)NC(=O)[C@H](Cc2ccccc2)NC(=O)CCCCCCNC1=O` [c[Aha-Phe-D-Trp-Lys-Thr(Bzl)]] (cyclo([Ahp]F[dW]KT(Bn))): the Ki in assay [1] stood at 398 nM; in assay [2] it was 398 nM; in assay [3], 316 nM; in assay [4], 3160 nM; in assay [5], 2510 nM.
